Test system: T1, SpSL (two-domain laccase of Streptomyces puniceus)
T1 construct: TAT signal peptide (1-34) removed: forward primer GGATCC-GAGAAGCCGCCCCG starts the insert at EKPP; pQE-30 (His-tag, cleavage not mentioned), E. coli M15 (pREP4), HisTrap; precursor 344 residues; 110 kDa native homotrimer
Assay: oxidation kinetics, nonlinear regression
Format: biochemical
Conditions: apparent constant, co-substrate O2
Description: oxidation kinetics, nonlinear regression on SpSL (two-domain laccase of Streptomyces puniceus)

[1] = pH of kinetics not printed (alkaline optimum)

Row | Km [1] [µM] | Km (pH of kinetics not printed (routine ABTS assay: 20 mM Na-acetate pH 5.0, 420 nm)) [µM] | Compound
1 | 1150 ± 100 |  | COc1cccc(OC)c1O [2,6-Dimethoxyphenol]
2 | 5700 ± 250 |  | COc1ccccc1O [2-Methoxyphenol]
3 |  | 370 ± 21 | CCn1c(=NN=c2sc3cc(S(=O)(=O)O)ccc3n2CC)sc2cc(S(=O)(=O)O)ccc21 [ABTS]
